In patent US8232407B2, “Nitrogenous heterocyclic compounds with insecticidal activity, and the preparation and use thereof” (East China University of Science and Technology, priority 2008, dated 2012):

What was measured:
Assay type in all cases: in vivo
Aphis craccivoral = assay: Insecticidal activities to aphids, immersion method; conditions: for Aphis craccivoral Mortality (%) 500 ppm: in vivo
In short: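 Immersion assay: compound diluted from 10 g/L DMF stock to 500 ppm in 0.2 mL/L Triton X-100, sprout-feeding wingless adults dipped 5 s. Kept at 23° C, three repeats; 24 h mortality calculated relative to surviving Triton-treated controls.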

Nilaparvata lugens = assay: Insecticidal activities to plant hopper, spraying method; conditions: for Nilaparvata lugens Mortality (%) 500 ppm: in vivo
In short: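 Spray test: acetone solutions of 500 down to 0.79 ppm, 2 ml per tumbler holding 10 planthoppers introduced 6 h earlier, triplicate, aqueous acetone as control. Mortality at 24 h calculated from survivors relative to control.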

[1] = tested on: Pseudaletia separate Walker; assay: Insecticidal activities to armyworm, leaf dipping and feeding; conditions: for Pseudaletia separate Walker Mortality (%) 500 ppm: in vivo
Protocol: (§1) Mortality (%)=(the number of the survival aphis in control group−the number of the survival aphis in the treatment group)/the number of the survival aphis in control group×100%
(3): Insecticidal Activities to Armyworm
Armyworm (Pseudaletia separate Walker) was tested by the way of leaf dipping and feeding. The test compound was exactly formulated with acetone into solutions having concentrations of 500, 250, 100, 50, 25, 12.5, 6.25, 3.13 and 1.57 ppm, respectively. Aqueous acetone solution was used as control. Fresh maize leaves were immersed in the solution for 3 seconds, dried at room temperature, and fed to the tested insects. Each treatment was tested with 10 insects and repeated for 3 tumblers (3 times). The number of killed insects was counted after 24 hours to calculate the mortality according to the above mentioned formula.

Plutella xylostella = assay: Insecticidal activities to diamondback moth, feeding dipped leaves; conditions: for Plutella xylostella Mortality (%) 500 ppm: in vivo
Protocol: as §1
(4): Insecticidal Activities to Diamondback Moth
Diamondback moth (Plutella xylostella) was tested by the way of feeding dippedleaves. Fresh cabbage leaves were immersed in above mentioned solution for 3 seconds, dried at room temperature, and fed to the tested insects. Each treatment was tested with 10 insects and repeated for 3 tumblers (3 times), while water was used as control. The number of killed insects was counted after 24 hours to calculate the mortality according to the above mentioned formula.

Row | Structure (SMILES) | Aphis craccivoral Mortality (%) 500 ppm (Aphis craccivoral) [%] | Nilaparvata lugens Mortality (%) 500 ppm (Nilaparvata lugens) [%] | Pseudaletia separate Walker Mortality (%) 500 ppm [1] [%] | Plutella xylostella Mortality (%) 500 ppm (Plutella xylostella) [%] | mortality at 500 ppm (Aphis craccivoral; Aphis, 500 ppm, immersion 5 seconds, counted after 24 hours, read-out: Aphis craccivoral Mortality (%) 500 ppm) [%] | mortality at 500 ppm (Nilaparvata lugens; Nilaparvata lugens, 500 ppm, spraying, counted after 24 hours, read-out: Nilaparvata lugens Mortality (%) 500 ppm) [%] | mortality at 500 ppm ([1]; Zea mays, foliar, 500 ppm, dipped maize leaves fed, counted after 24 hours, read-out: Pseudaletia separate Walker Mortality (%) 500 ppm) [%] | mortality at 500 ppm (Plutella xylostella; Plutella xylostella, 500 ppm, dipped cabbage leaves fed, counted after 24 hours, read-out: Plutella xylostella Mortality (%) 500 ppm) [%]
1 | O=[N+]([O-])C(=Cc1cc(Cl)c(Cl)o1)C1=NCCN1Cc1cnc(Cl)s1 [Compound 75] | 100 | 100 | 100 | 100 | – | – | – | –
2 | O=[N+]([O-])C(=Cc1ccsc1)C1=NCCCN1Cc1ccc(Cl)nc1 [Compound 62] | 90 | 100 | 100 | 100 | – | – | – | –
3 | O=[N+]([O-])C(=Cc1cc(Br)c(Br)s1)C1=NCCN1Cc1ccc(Cl)nc1 [Compound 25] | 100 | 100 | 100 | 100 | – | – | – | –
4 | N#CC(=Cc1ccc([N+](=O)[O-])o1)C1=NCCN1Cc1ccc(Cl)nc1 [Compound 142] | 100 | 100 | 100 | 100 | – | – | – | –
5 | Cc1ccc(C=C(C2=NCCN2Cc2ccc(Cl)nc2)[N+](=O)[O-])cn1 [Compound 42] | 45 | 36 | 87 | 90. | – | – | – | –
6 | C[N+]1=C(C(=Cc2ccc([N+](=O)[O-])o2)[N+](=O)[O-])N(Cc2cnc(Cl)s2)CC1.[Cl-] [Compound 277] | 100 | 100 | 100 | 100 | – | – | – | –
7 | CC(=C(C1=NCCN1C(C)c1ccc(Cl)nc1)[N+](=O)[O-])c1ccc([N+](=O)[O-])o1 (racemic) [Compound 135] | 56 | 63 | 45 | 56 | – | – | – | –
8 | O=[N+]([O-])C(=Cc1ccc(CO)s1)C1=NCCN1Cc1ccc(Cl)nc1 [Compound 30] | 100 | 100 | 100 | 100 | – | – | – | –
9 | O=[N+]([O-])C(=Cc1ccc(Cl)o1)C1=NCCN1CC1CCOC1 (stereo not shown) [Compound 94] | 46 | 77 | 77 | 83 | – | – | – | –
10 | C[N+]1=C(C(=Cc2cc(Cl)c(Cl)s2)[N+](=O)[O-])N(Cc2ccc(Cl)nc2)CC1.[Cl-] [Compound 266] | 100 | 100 | 100 | 100 | – | – | – | –
11 | C[N+]1=C(C(=Cc2ccc(Br)o2)[N+](=O)[O-])N(Cc2ccc(Cl)nc2)CC1.[Cl-] [Compound 248] | 100 | 100 | 100 | 100 | – | – | – | –
12 | O=[N+]([O-])C(=Cc1cc(Br)c(Br)o1)C1=NCCN1Cc1ccccc1 [Compound 110] | 58 | 23 | 85 | 51 | – | – | – | –
13 | Cc1csc(C=C(C2=NCCN2Cc2ccc(Cl)nc2)[N+](=O)[O-])c1 [Compound 28] | 100 | 100 | 100 | 100 | – | – | – | –
14 | CCN(Cc1ccc(Cl)nc1)C(=N\C)/C(=C\c1ccc[nH]1)[N+](=O)[O-] [Compound 160, N-((6-chloropyridin-3-yl)methyl)-N-ethyl-N′-methyl-2-nitro-3-(1H-pyrrol-2-yl) acrylamidine] | – | – | – | – | 56 | 54 | 64 | 100
15 | CC(c1ccc(Cl)nc1)N1CCN=C1C(=Cc1ccc([N+](=O)[O-])s1)[N+](=O)[O-] (racemic) [Compound 129] | 100 | 100 | 100 | 80 | – | – | – | –
16 | O=[N+]([O-])C(=Cc1cc(Cl)c(Cl)s1)C1=NCCN1Cc1ccc(Cl)nc1 [Compound 23] | 100 | 100 | 100 | 100 | – | – | – | –

Row | Structure (SMILES) | Aphis craccivoral Mortality (%) 500 ppm (Aphis craccivoral) [%] | Nilaparvata lugens Mortality (%) 500 ppm (Nilaparvata lugens) [%] | Pseudaletia separate Walker Mortality (%) 500 ppm [1] [%] | Plutella xylostella Mortality (%) 500 ppm (Plutella xylostella) [%] | mortality at 500 ppm (Aphis craccivoral; Aphis, 500 ppm, immersion 5 seconds, counted after 24 hours, read-out: Aphis craccivoral Mortality (%) 500 ppm) [%] | mortality at 500 ppm (Nilaparvata lugens; Nilaparvata lugens, 500 ppm, spraying, counted after 24 hours, read-out: Nilaparvata lugens Mortality (%) 500 ppm) [%] | mortality at 500 ppm ([1]; Zea mays, foliar, 500 ppm, dipped maize leaves fed, counted after 24 hours, read-out: Pseudaletia separate Walker Mortality (%) 500 ppm) [%] | mortality at 500 ppm (Plutella xylostella; Plutella xylostella, 500 ppm, dipped cabbage leaves fed, counted after 24 hours, read-out: Plutella xylostella Mortality (%) 500 ppm) [%]
17 | O=[N+]([O-])C(=Cc1ccc(Cl)nc1)C1=NCCN1Cc1ccc(Cl)nc1 [Compound 40] | 45 | 44 | 67 | 56 | – | – | – | –
18 | O=[N+]([O-])C(=Cc1oc(Br)cc1Br)C1=NCCN1Cc1cnc(Cl)s1 [Compound 78] | 100 | 100 | 100 | 100 | – | – | – | –
19 | CCc1ccc(C=C(C2=NCCN2Cc2ccc(Cl)nc2)[N+](=O)[O-])o1 [Compound 14] | 100 | 100 | 100 | 100 | – | – | – | –
20 | N#CC(=Cc1ccc(CO)o1)C1=NCCN1Cc1ccc(Cl)nc1 [Compound 145] | 92 | 100 | 100 | 100 | – | – | – | –
21 | Cc1ccc(C=C(C2=NCCN2Cc2ccc(Cl)nc2)[N+](=O)[O-])s1 [Compound 27] | 100 | 100 | 100 | 100 | – | – | – | –
22 | O=[N+]([O-])C(=Cc1ccco1)C1=NCCN1Cc1ccccc1 [Compound 103] | 86 | 100 | 70 | 25 | – | – | – | –
23 | O=[N+]([O-])C(=Cc1ccc(CO)o1)C1=NCCN1Cc1cnc(Cl)s1 [Compound 82] | 100 | 100 | 100 | 100 | – | – | – | –
24 | O=[N+]([O-])C(=Cc1cc(Cl)c(Cl)o1)C1=NCCN1Cc1ccc(Cl)nc1 [Compound 8] | 100 | 100 | 100 | 100 | – | – | – | –
25 | O=[N+]([O-])C(=Cc1ccncc1)C1=NCCN1Cc1ccc(Cl)nc1 [Compound 39] | 24 | 35 | 35 | 21 | – | – | – | –
26 | CC[N+]1=C(C(=Cc2ccc(Br)o2)[N+](=O)[O-])N(Cc2ccc(Cl)nc2)CC1.[Cl-] [Compound 289] | 100 | 100 | 100 | 100 | – | – | – | –
27 | O=[N+]([O-])C(=Cc1oc(Br)cc1Br)C1=NCCN1Cc1ccc(Cl)nc1 [Compound 11] | 100 | 100 | 100 | 100 | – | – | – | –
28 | C[N+]1=C(C(=Cc2ccoc2)[N+](=O)[O-])N(Cc2cnc(Cl)s2)CC1.[Cl-] [Compound 276] | 100 | 100 | 100 | 100 | – | – | – | –
29 | CC[N+]1=C(C(=Cc2ccc(Cl)o2)[N+](=O)[O-])N(Cc2ccc(Cl)nc2)CC1.[Cl-] [Compound 288] | 100 | 100 | 100 | 100 | – | – | – | –
30 | O=[N+]([O-])C(=Cc1cc(Br)co1)C1=NCCN1CC1CCOC1 (stereo not shown) [Compound 97] | 76 | 88 | 90 | 86 | – | – | – | –
31 | CC(=C(C1=NCCN1C(C)c1ccc(Cl)nc1)[N+](=O)[O-])c1ccc(Br)o1 (racemic) [Compound 137] | 98 | 100 | 100 | 100 | – | – | – | –
